Tested on: female NMRI mice
Assay: Anorectic effect: cumulative condensed milk consumption in fasted mice
Format: in vivo
Conditions: oral dose 30 mg/kg by gavage after withdrawal of feed for 17 hours, condensed milk offered 30 minutes after administration, consumption determined for 7 hours, compared with vehicle-treated control animals
Experimental: The anorectic effect was tested on female NMRI mice. After withdrawal of feed for 17 hours, the test product was administered by gavage. The animals were housed singly with free access to drinking water and were offered condensed milk 30 minutes after administration of the product. The condensed milk consumption was determined every half hour for 7 hours, and the general wellbeing of the animals was observed. The measured milk consumption was compared with the vehicle-treated control animals.

SMILES | Reduction in cumulative milk consumption as % of the control [%]
CCCCOc1ccc(C(=O)Nc2ccc(OC[C@@H]3CCCN4CCCC[C@H]34)cc2)cc1 [Example 2, 4-Butoxy-N-{4-[(1R,9aR)-1-(octahydroquinolizin-1-yl)methoxy]phenyl}-benzamide] | 73
O=C(Nc1ccc(OC[C@@H]2CCCN3CCCC[C@H]23)cc1)N1CCC(c2ccc(Cl)cc2)CC1 [Example 37] | 24
